Earlier results in US11773078B2, “Furin inhibitors” (Glaxosmithkline Intellectual Property Development Limited, priority 2018, dated 2023).

Biological target: furin and PCSK 5/6
Conditions: serpin protease inhibitor; specificity for furin and PCSK 5/6; from Couture et al. 2015; cited from earlier work

Substance: α1-PDX: "an engineered variant of naturally occurring α-1-antitrypsin serum protease inhibitor"; "a serpin superfamily wide protease inhibitor with high specificity for furin and PCSK 5/6"
- Ki: ≥ 0.6 nM
